# ± gives the standard deviation of the averaged measurements.
# Test system: MCF7
# Assay: HRG-induced Akt activation (dPAkt = log2 pAkt/Akt HRG-stimulated minus log2 pAkt/Akt basal) (log2 ratio difference); higher = stronger HRG-induced Akt(T308) phosphorylation
# Conditions: miRNA mimic concentration 10 nM; time after transfection 72 h; heregulin 10 ng/ml; stimulation time 1 h
# Summary of the method: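 MCF7 cells ([…], 96-well plates) carrying one of 879 miRNA mimics, transfected at 10 nM final with Lipofectamine RNAiMax in two biological replicates, were stimulated after 72 h with 10 ng/ml heregulin-beta1 for 1 h or left unstimulated. Phospho-Akt(T308) and total Akt in cells fixed with 4% PFA were read by In-Cell Western on an Odyssey and corrected for column-wise fixation decay to give log2(pAkt/Akt). Heregulin-induced Akt activation is the replicate mean of stimulated minus unstimulated ratios.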
row,Sequence,HRG-induced Akt activation (log2)
1,CUAUACGGCCUCCUAGCUUUCC,1.9 ± 0.13
2,AGUAUUCUGUACCAGGGAAGGU,1.96 ± 0.043
3,UCCCACCGCUGCCACCC,1.98 ± 0.17
4,UGAGGUAGUAGAUUGUAUAGUU,1.22 ± 0.24
5,UUGGGGAAACGGCCGCUGAGUG,2.08 ± 0.097
6,GUAGAGGAGAUGGCGCAGGG,1.33 ± 0.22
7,CCUGCAGCGACUUGAUGGCUUCC,0.841 ± 0.6
8,UAUGUGGGAUGGUAAACCGCUU,2.19 ± 0.34
9,AGCCUGGAAGCUGGAGCCUGCAGU,1.35 ± 0.14
10,UCACAAGUCAGGCUCUUGGGAC,1.27 ± 0.15
11,AUCACAUUGCCAGGGAUUACC,1.54 ± 0.03
12,AUGGUACCCUGGCAUACUGAGU,1.62 ± 0.59
13,AAAGUAGCUGUACCAUUUGC,1.44 ± 0.56
14,CAAACCACACUGUGGUGUUAGA,1.09 ± 0.76
15,CUUUCAGUCGGAUGUUUACAGC,1.62 ± 0.098
16,UGCCCUUAAAGGUGAACCCAGU,1.22 ± 0.2
17,UUCUCCAAAAGAAAGCACUUUCUG,2.57 ± 0.12
18,UUAGGCCGCAGAUCUGGGUGA,1.39 ± 0.89
19,UGCUAUGCCAACAUAUUGCCAU,1.72 ± 0.27
20,GUUGGAGGAUGAAAGUACGGAGUGAU,0.878 ± 1.2
21,AACUGUUUGCAGAGGAAACUGA,1.816 ± 0.014
22,GCUGGUUUCAUAUGGUGGUUUAGA,1.82 ± 0.049

row,Sequence,HRG-induced Akt activation (log2)
1,AAAAGUAAUCGCGGUUUUUGUC,1.2 ± 0.063
2,AAGUUCUGUUAUACACUCAGGC,1.154 ± 0.01
3,UUGCUCACUGUUCUUCCCUAG,0.86933 ± 0.00015
4,UAGCAGCACGUAAAUAUUGGCG,2.03 ± 0.15
5,UCGUUUGCCUUUUUCUGCUU,1.46 ± 0.3
6,AAAAUGGUGCCCUAGUGACUACA,1.9 ± 0.43
7,UGUUCAUGUAGAUGUUUAAGC,1.08 ± 0.15
8,GUGCAUUGUAGUUGCAUUGCA,1.43 ± 0.074
9,UUUGGCAAUGGUAGAACUCACACU,1.75 ± 0.06
10,UAAUGCCCCUAAAAAUCCUUAU,0.932 ± 0.16
11,UGGUCUAGGAUUGUUGGAGGAG,1.61 ± 0.078
12,UUACAGUUGUUCAACCAGUUACU,1.44 ± 0.019
13,UUUUUCAUUAUUGCUCCUGACC,1.62 ± 0.14
14,CUAGUGAGGGACAGAACCAGGAUUC,1.82 ± 0.032
15,UUAUCAGAAUCUCCAGGGGUAC,2.16 ± 0.2
16,AGACCUGGCCCAGACCUCAGC,1.51 ± 0.39
17,CAUGCCUUGAGUGUAGGACCGU,1.16 ± 0.11
18,UAACAGUCUCCAGUCACGGCC,1.5 ± 0.11
19,UCCCUGAGACCCUUUAACCUGUGA,1.77 ± 0.13
20,AAAGUGCAUCCUUUUAGAGUGU,0.756 ± 0.11
21,UGAUAUGUUUGAUAUUGGGUU,1.75 ± 0.041
22,ACUUUAACAUGGAGGCACUUGC,1.41 ± 0.029

row,Sequence,HRG-induced Akt activation (log2)
1,CAAAAAUCUCAAUUACUUUUGC,2.04 ± 0.028
2,UAAAUUUCACCUUUCUGAGAAGG,1.46 ± 0.22
3,UGGAAGACUAGUGAUUUUGUUGU,2.15 ± 0.38
4,AAGUGCCUCCUUUUAGAGUGUU,0.982 ± 0.27
5,UCUACAGUGCACGUGUCUCCAG,1.65 ± 0.062
6,AACACACCUAUUCAAGGAUUCA,1.11 ± 0.37
7,CUGUGCGUGUGACAGCGGCUGA,0.692 ± 0.043
8,CUGGAGAUAUGGAAGAGCUGUGU,1.14 ± 0.047
9,CAAAGCGCUUCCCUUUGGAGC,1.259 ± 0.0069
10,GCCCAAAGGUGAAUUUUUUGGG,1.33 ± 0.1
11,AUAUAAUACAACCUGCUAAGUG,0.999 ± 0.15
12,AUGACCUAUGAAUUGACAGAC,1.43 ± 0.063
13,GCAUGGGUGGUUCAGUGG,1.52 ± 0.11
14,UUAUAAAGCAAUGAGACUGAUU,1.5 ± 0.79
15,CGUCAACACUUGCUGGUUUCCU,2.32 ± 0.12
16,AAAUUAUUGUACAUCGGAUGAG,1.48 ± 0.61
17,CAGUGCAAUGAUAUUGUCAAAGC,1.07 ± 0.53
18,UGGAAUGUAAAGAAGUAUGUAU,1.76 ± 0.27
19,UGAGCCCUGUCCUCCCGCAG,2.24 ± 0.29
20,CCCCACCUCCUCUCUCCUCAG,1.28 ± 0.38
21,AGGCUGCGGAAUUCAGGAC,1.56 ± 0.23
22,AGCUGGUGUUGUGAAUCAGGCCG,1.87 ± 0.075

row,Sequence,HRG-induced Akt activation (log2)
1,UAAAGUGCUUAUAGUGCAGGUAG,1.57 ± 0.035
2,ACUUGUAUGCUAGCUCAGGUAG,1.13 ± 0.012
3,UUUUGCACCUUUUGGAGUGAA,1.55 ± 0.13
4,CAAAGUGCUGUUCGUGCAGGUAG,1.46 ± 0.35
5,UUGAGAAUGAUGAAUCAUUAGG,1.82 ± 0.5
6,GCAGGAACUUGUGAGUCUCCU,1.8 ± 0.32
7,ACUCAAAAUGGGGGCGCUUUCC,1.51 ± 0.055
8,AGGGGGAAAGUUCUAUAGUCC,1.2 ± 0.07
9,UGUAAACAUCCCCGACUGGAAG,0.646 ± 0.057
10,UGUCUCUGCUGGGGUUUCU,1.89 ± 0.58
11,CGGGUCGGAGUUAGCUCAAGCGG,1.44 ± 0.098
12,UGAUUGGUACGUCUGUGGGUAG,2.35 ± 0.031
13,UUUCCAUAGGUGAUGAGUCAC,1.09 ± 0.68
14,UCGAGGAGCUCACAGUCUAGU,1.71 ± 0.23
15,GAACGCCUGUUCUUGCCAGGUGG,1.4 ± 0.093
16,UUUGGCACUAGCACAUUUUUGCU,1.535 ± 0.007
17,UUCUGGAAUUCUGUGUGAGGGA,1.78 ± 0.2
18,UGUAAACAUCCUACACUCAGCU,0.757 ± 0.3
19,CGAAUCAUUAUUUGCUGCUCUA,1.44 ± 0.25
20,UGGGAACGGGUUCCGGCAGACGCUG,1.22 ± 0.16
21,UGACCGAUUUCUCCUGGUGUUC,2.09 ± 0.076
22,CGGCGGGGACGGCGAUUGGUC,2.14 ± 0.33

row,Sequence,HRG-induced Akt activation (log2)
1,GUGCCAGCUGCAGUGGGGGAG,0.883 ± 0.036
2,UCUUCUCUGUUUUGGCCAUGUG,1.27 ± 0.041
3,AAAGACAUAGGAUAGAGUCACCUC,1.9 ± 0.072
4,GAAUGUUGCUCGGUGAACCCCU,1.33 ± 0.039
5,UCAGUGCACUACAGAACUUUGU,0.519 ± 0.1
6,UGUCUUGCAGGCCGUCAUGCA,1.68 ± 0.5
7,AGUUUUGCAGGUUUGCAUCCAGC,1.36 ± 0.22
8,UGUGCAAAUCCAUGCAAAACUGA,0.657 ± 0.2
9,AAAGUGCUUCCCUUUGGACUGU,0.806 ± 0.049
10,GGAGACGCGGCCCUGUUGGAGU,1.33 ± 0.052
11,GAGCUUAUUCAUAAAAGUGCAG,1.76 ± 0.036
12,ACUUGGGCACUGAAACAAUGUCC,1.5 ± 0.025
13,CCCGGAGCCAGGAUGCAGCUC,1.79 ± 0.39
14,UAGGUAGUUUCCUGUUGUUGGG,2.19 ± 0.23
15,GUGGCUGCACUCACUUCCUUC,1.16 ± 0.076
16,CCAUGGAUCUCCAGGUGGGU,1.47 ± 0.17
17,AACAGGUGACUGGUUAGACAA,2.3 ± 0.13
18,GGCUAGCAACAGCGCUUACCU,0.933 ± 0.081

# From the supplement of paper PMC4314810
